Measured values reported in patent US20050283841A1, “Inhibition of protein kinase C-related kinase (PRK) as a treatment for cardiac hypertrophy and heart failure” (priority 2004, published 2005).

Experiments:
PRK [1] = conditions: Kuwahara et al., 1999; Kondoh et al., 1997; not specific for PRK, also block ROCK; cited from earlier work
PRK [2] = experiment: Western blot analysis of PRK phosphorylation status in left ventricular tissue after isoproterenol infusion; format: in vivo; conditions: rat, 4 days of isoproterenol infusion compared to control saline infusion; anti-phospho-PRK Western blot; *P<0.05
Description: (§1) For isoproterenol infusion, nine to ten-week-old male Sprague-Dawley rats were anesthetized via passive inhalation of 2.0% isoflurane. When a level of surgical anesthesia was reached, an osmotic minipump (Alzet model 2001, Alza Corp., Palo Alto Calif.) containing either vehicle (0.1% ascorbic acid in 0.9% NaCl), or isoproterenol (4.8 mg/kg/d) was subcutaneously implanted into the back between the scapulae followed by closure with 3-0 silk sutures. After 4 days of recovery, animals were sacrificed and left ventricular tissue processed for Western blot analysis as described below. Average heart weight to body weight ratios in isoproterenol versus vehicle-infused rats increased 48% (data not shown).
Immunoblotting analyses. […] Protein concentration was determined by BCA assay (Pierce), and 20 μg of total protein was resolved by SDS-polyacrylamide gel electrophoresis (PAGE) with gradient gels (4 to 20% polyacrylamide; Invitrogen). […] Film images were then scanned and quantified using a digital image analysis system (Alpha Innotech).
PRK phosphorylation is increased with pathological cardiac hypertrophy in vivo. […] PRK phosphorylation is readily detected by Western analysis employing anti-phospho-PRK antibodies.

[3] = Isoproterenol infusion model of pathological cardiac hypertrophy, heart weight to body weight ratio; format: in vivo, Sprague-Dawley rats; conditions: isoproterenol 4.8 mg/kg/d, subcutaneous osmotic minipump, 4 days; data not shown
Description: as §1

SMILES | PRK inhibition (known inhibitor) (PRK [1]) | PRK phosphorylation (PRK [2]) | Average heart weight to body weight ratios, increase versus vehicle-infused rats [3] [%]
O=S(=O)(c1cccc2cnccc12)N1CCCNCC1 [Fasudil] | characterized as PRK inhibitors |  | 
CC(C)NCC(O)c1ccc(O)c(O)c1 (stereo not shown) [isoproterenol] |  | increased | 48
C[C@@H](N)[C@H]1CC[C@H](C(=O)Nc2ccncc2)CC1 [Y27632] | characterized as PRK inhibitors |  | 
